Measured values published in patent US8933074B2, “1,2-disubstituted heterocyclic compounds” (FORUM Pharmaceuticals Inc., priority 2008, dated 2015).

These molecules were tested against Human PDE10A1 (Homo sapiens, UniProt Q9Y233) (assay: hPDE10A1 enzyme inhibition). Conditions: [3H]-cAMP substrate, 20 minutes at 37° C.; read-out: hPDE10A1 IC50 Band.
Format: biochemical
Description: 50 μl samples of serially diluted Human PDE10A1 enzyme were incubated with 50 μl of [^3H]-cAMP for 20 minutes (at 37° C.). Reactions were carried out in Greiner 96 deep well 1 ml master-block. The enzyme was diluted in 20 mM Tris HCl pH7.4 and [^3H]-cAMP was diluted in 10 mM MgCl2, 40 mM Tris.HCl pH 7.4. The reaction was terminated by denaturing the PDE enzyme (at 70° C.) after which [^3H]-5′-AMP was converted to [^3H]-adenosine by adding 25 μl snake venom nucleotidase and incubating for 10 minutes (at 37° C.). Adenosine, being neutral, was separated from charged cAMP or AMP by the addition of 200 μl Dowex resin. Samples were shaken for 20 minutes then centrifuged for 3 minutes at 2,500 r.p.m. 50 μl of supernatant was removed and added to 200 μl of MicroScint-20 in white plates (Greiner 96-well Optiplate) and shaken for 30 minutes before reading on Perkin Elmer TopCount Scintillation Counter.
To check inhibition profile 11 μl of serially diluted inhibitor was added to 50 μl of [^3H]-cAMP and 50 ul of diluted Human PDE10A1 and assay was carried out as in the enzyme activity assay. Data was analysed using Prism software (GraphPad Inc).

Chain of Human PDE10A1 (Q9Y233 1-779 isoform Q9Y233-1): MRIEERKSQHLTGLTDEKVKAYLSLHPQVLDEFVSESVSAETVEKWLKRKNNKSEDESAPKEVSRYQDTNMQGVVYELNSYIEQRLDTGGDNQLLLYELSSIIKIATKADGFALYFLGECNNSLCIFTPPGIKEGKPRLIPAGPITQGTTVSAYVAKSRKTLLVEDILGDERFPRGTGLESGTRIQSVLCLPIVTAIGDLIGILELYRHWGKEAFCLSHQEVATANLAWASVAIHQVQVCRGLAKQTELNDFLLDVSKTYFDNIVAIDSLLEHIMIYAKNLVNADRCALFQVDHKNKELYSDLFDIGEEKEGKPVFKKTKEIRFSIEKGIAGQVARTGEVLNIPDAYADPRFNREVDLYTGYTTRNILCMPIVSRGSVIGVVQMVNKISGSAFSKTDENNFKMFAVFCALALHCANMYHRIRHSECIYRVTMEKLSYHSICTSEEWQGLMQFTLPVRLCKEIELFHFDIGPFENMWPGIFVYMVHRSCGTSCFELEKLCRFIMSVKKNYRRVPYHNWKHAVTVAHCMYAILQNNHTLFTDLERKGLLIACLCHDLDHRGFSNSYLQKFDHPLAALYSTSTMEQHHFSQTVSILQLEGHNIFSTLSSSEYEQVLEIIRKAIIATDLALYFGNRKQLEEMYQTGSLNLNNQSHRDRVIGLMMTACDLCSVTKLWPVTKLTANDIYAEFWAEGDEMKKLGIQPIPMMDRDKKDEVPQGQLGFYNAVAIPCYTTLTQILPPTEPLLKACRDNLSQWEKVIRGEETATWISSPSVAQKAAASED

| Structure (SMILES) | IC50 [nM] |
| --- | --- |
| CC1(C)OC(c2ccc(OCC3CC3)cc2)=C(c2ccc(OCc3ccc4ccccc4n3)cc2)C1=O [Example 161, 5-(4-(cyclopropylmethoxy)phenyl)-2,2-dimethyl-4-(4-(quinolin-2-ylmethoxy)phenyl)furan-3(2H)-one] | > 50 |
| CN1C(=O)C(c2ccncc2)=C(c2ccc(OCc3ccc4ccccc4n3)cc2)C1=O [Example 11, 1-methyl-3-(pyridin-4-yl)-4-(4-(quinolin-2-ylmethoxy)phenyl)-1H-pyrrole-2,5-dione] | > 50 |
| COc1ccc(C2=C(c3ccc(OCc4ccc5ccccc5n4)cc3)C(=O)N(C)C2(C)C)cc1 [Example 73, 4-(4-methoxyphenyl)-1,5,5-trimethyl-3-(4-(quinolin-2-ylmethoxy)phenyl)-1H-pyrrol-2(5H)-one] | > 50 |
| CC1(C)OC(c2ccncn2)=C(c2ccc(OCc3ccc4ccccc4n3)cc2)C1=O [Example 127, 2,2-dimethyl-5-(pyrimidin-4-yl)-4-(4-(quinolin-2-ylmethoxy)phenyl)furan-3(2H)-one] | > 50 |
| CN1C(=O)C(c2ccc(OCc3ccc4ccccc4n3)cc2)=C(N2CCC(=O)CC2)C1=O [Example 820, 1-Methyl-3-(4-oxopiperidin-1-yl)-4-(4-(quinolin-2-ylmethoxy)phenyl)-1H-pyrrole-2,5-dione] | > 50 |
| O=C1OC2(CC2)C(c2ccncc2)=C1c1ccc(OCc2ccc3ccccc3n2)cc1 [Example 26, 7-(Pyridin-4-yl)-6-(4-(quinolin-2-ylmethoxy)phenyl)-4-oxaspiro[2.4]hept-6-en-5-one] | > 50 |
| CC1(C)OC(c2ccc(N(S(C)(=O)=O)S(C)(=O)=O)cc2)=C(c2ccc(OCc3ccc4ccccc4n3)cc2)C1=O [Example 817, N-(4-(5,5-dimethyl-4-oxo-3-(4-(quinolin-2-ylmethoxy)phenyl)-4,5-dihydrofuran-2-yl)phenyl)-N-(methylsulfonyl)methanesulfonamide] | ≤ 50 |
| CC1(C)OC(c2ccc(F)cc2)=C(c2ccc(OCc3ccc4ccccc4n3)cc2)C1=O [Example 153, 5-(4-fluorophenyl)-2,2-dimethyl-4-(4-(quinolin-2-ylmethoxy)phenyl)furan-3(2H)-one] | ≤ 50 |
| CC1(C)OC(c2ccc(NS(C)(=O)=O)cc2)=C(c2ccc(OCc3ccc4ccccc4n3)cc2)C1=O [Example 815, N-(4-(5,5-dimethyl-4-oxo-3-(4-(quinolin-2-ylmethoxy)phenyl)-4,5-dihydrofuran-2-yl)phenyl)methanesulfonamide] | ≤ 50 |
| COc1ccc(C2=C(c3ccc(OCc4ccc5ccccc5n4)cc3)C(=O)OC2(C)C)cc1 [Example 33, 4-(4-methoxyphenyl)-5,5-dimethyl-3-(4-(quinolin-2-ylmethoxy)phenyl)furan-2(5H)-one] | ≤ 50 |
| CC1(C)OC(c2ccc3ocnc3c2)=C(c2ccc(OCc3ccc4ccccc4n3)cc2)C1=O [Example 821, 5-(benzo[d]oxazol-5-yl)-2,2-dimethyl-4-(4-(quinolin-2-ylmethoxy)phenyl)furan-3(2H)-one] | ≤ 50 |
| CC1(C)OC(c2cscn2)=C(c2ccc(OCc3ccc4ccccc4n3)cc2)C1=O [Example 174, 2,2-dimethyl-4-(4-(quinolin-2-ylmethoxy)phenyl)-5-(thiazol-4-yl)furan-3(2H)-one] | ≤ 50 |
| CC1(C)OC(c2ccc(CC(F)(F)F)cc2)=C(c2ccc(OCc3ccc4ccccc4n3)cc2)C1=O [Example 156, 2,2-dimethyl-4-(4-(quinolin-2-ylmethoxy)phenyl)-5-(4-(2,2,2-trifluoroethyl)phenyl)furan-3(2H)-one] | ≤ 50 |
| Cc1ccc(COc2ccc(C3=C(c4ccncc4)OC(C)(C)C3=O)cc2)nc1 [Example 808, 2,2-dimethyl-4-(4-((5-methylpyridin-2-yl)methoxy)phenyl)-5-(pyridin-4-yl) furan-3(2H)-one] | ≤ 50 |
| CC1(C)OC(c2ccc(Cl)cc2)=C(c2ccc(OCc3ccc4ccccc4n3)cc2)C1=O [Example 147, 5-(4-Chlorophenyl)-2,2-dimethyl-4-(4-(quinolin-2-ylmethoxy)phenyl) furan-3(2H)-one] | ≤ 50 |
| CC1(C)OC(c2ccc(OCC(F)(F)F)cc2)=C(c2ccc(OCc3ccc4ccccc4n3)cc2)C1=O [Example 162, 2,2-dimethyl-4-(4-(quinolin-2-ylmethoxy)phenyl)-5-(4-(2,2,2-trifluoroethoxy)phenyl)furan-3(2H)-one] | ≤ 50 |
| CC1(C)OC(c2ccc3nonc3c2)=C(c2ccc(OCc3ccc4ccccc4n3)cc2)C1=O [Example 166, 5-(Benzo[c][1,2,5]oxadiazol-5-yl)-2,2-dimethyl-4-(4-(quinolin-2-ylmethoxy)phenyl)furan-3(2H)-one] | ≤ 50 |
| CC(=O)Nc1ccc(C2=C(c3ccc(OCc4ccc5ccccc5n4)cc3)C(=O)C(C)(C)O2)cc1 [Example 814, N-(4-(5,5-dimethyl-4-oxo-3-(4-(quinolin-2-ylmethoxy)phenyl)-4,5-dihydrofuran-2-yl)phenyl)acetamide] | ≤ 50 |

The next lines start with the values.

| IC50 [nM] | Structure (SMILES) |
| --- | --- |
| ≤ 50 | CC1(C)OC(c2ccc(OC(F)F)cc2)=C(c2ccc(OCc3ccc4ccccc4n3)cc2)C1=O [Example 159, 5-(4-(difluoromethoxy)phenyl)-2,2-dimethyl-4-(4-(quinolin-2-ylmethoxy)phenyl)furan-3(2H)-one] |
| ≤ 50 | CC1(C)OC(c2ccc([N+](=O)[O-])cc2)=C(c2ccc(OCc3ccc4ccccc4n3)cc2)C1=O [Example 164, 2,2-Dimethyl-5-(4-nitrophenyl)-4-(4-(quinolin-2-ylmethoxy)phenyl) furan-3(2H)-one] |
| ≤ 50 | COc1ccc(C2=C(c3ccc(OCc4ccc5ccccc5n4)cc3)C(=O)C(C)(C)O2)cn1 [Example 133, 5-(6-methoxypyridin-3-yl)-2,2-dimethyl-4-(4-(quinolin-2-ylmethoxy)phenyl)furan-3(2H)-one] |
| ≤ 50 | COc1ccc(C2=C(c3ccc(OCc4ccc5ccccc5n4)cc3)C(=O)C(C)(C)O2)cc1 [Example 138, 5-(4-Methoxyphenyl)-2,2-dimethyl-4-(4-(quinolin-2-ylmethoxy)phenyl) furan-3(2H)-one] |
| ≤ 50 | CCOc1ccc(C2=C(c3ccc(OCc4ccc5ccccc5n4)cc3)C(=O)C(C)(C)O2)cc1 [Example 157, 5-(4-ethoxyphenyl)-2,2-dimethyl-4-(4-(quinolin-2-ylmethoxy)phenyl)furan-3(2H)-one] |
| ≤ 50 | CC1(C)OC(c2ccc(OC(F)(F)F)cc2)=C(c2ccc(OCc3ccc4ccccc4n3)cc2)C1=O [Example 155, 2,2-dimethyl-4-(4-(quinolin-2-ylmethoxy)phenyl)-5-(4-(trifluoromethoxy)phenyl)furan-3(2H)-one] |
| ≤ 50 | COc1cc(C2=C(c3ccc(OCc4ccc5ccccc5n4)cc3)C(=O)C(C)(C)O2)ccn1 [Example 131, 5-(2-methoxypyridin-4-yl)-2,2-dimethyl-4-(4-(quinolin-2-ylmethoxy)phenyl)furan-3(2H)-one] |
| ≤ 50 | CC1(C)NC(=O)C(c2ccc(OCc3ccc4ccccc4n3)cc2)=C1c1ccncc1 [Example 63, 5,5-dimethyl-4-(pyridin-4-yl)-3-(4-(quinolin-2-ylmethoxy)phenyl)-1H-pyrrol-2(5H)-one] |
| ≤ 50 | CC1(C)OC(c2ccc(OCc3ccc4ccccc4n3)cc2)=C(c2ccncc2)C1=O [Example 249, 2,2-dimethyl-4-(pyridin-4-yl)-5-(4-(quinolin-2-ylmethoxy)phenyl) furan-3(2H)-one] |
| ≤ 50 | CC1(C)OC(c2ccc(OC(F)F)c(C#N)c2)=C(c2ccc(OCc3ccc4ccccc4n3)cc2)C1=O [Example 169, 2-(difluoromethoxy)-5-(5,5-dimethyl-4-oxo-3-(4-(quinolin-2-ylmethoxy)phenyl)-4,5-dihydrofuran-2-yl)benzonitrile] |
| ≤ 50 | CC(=O)N(C(C)=O)c1ccc(C2=C(c3ccc(OCc4ccc5ccccc5n4)cc3)C(=O)C(C)(C)O2)cc1 [Example 819, N-acetyl-N-(4-(5,5-dimethyl-4-oxo-3-(4-(quinolin-2-ylmethoxy)phenyl)-4,5-dihydrofuran-2-yl)phenyl)acetamide] |
| ≤ 50 | COc1ccc(C2=C(c3ccc(OCc4ccc5ccccc5n4)cc3)C(=O)OC23CC3)cc1 [Example 126, 7-(4-methoxyphenyl)-6-(4-(quinolin-2-ylmethoxy)phenyl)-4-oxaspiro[2.4]hept-6-en-5-one] |
| ≤ 50 | COc1ccc(C2=C(c3ccc(OCc4ccc5ccccc5n4)cc3)C(=O)C(C)(C)O2)cc1F [Example 134, 5-(3-fluoro-4-methoxyphenyl)-2,2-dimethyl-4-(4-(quinolin-2-ylmethoxy)phenyl)furan-3(2H)-one] |
| ≤ 50 | COc1ccc(C2=C(c3ccc(OCc4ccc5ccccc5n4)cc3)C(=O)C(C)(C)O2)cc1C#N [Example 137, 5-(5,5-Dimethyl-4-oxo-3-(4-(quinolin-2-ylmethoxy)phenyl)-4,5-dihydrofuran-2-yl)-2-methoxybenzonitrile] |
| ≤ 50 | CC1(C)OC(c2ccc(O)cc2)=C(c2ccc(OCc3ccc4ccccc4n3)cc2)C1=O [Example 813, 5-(4-hydroxyphenyl)-2,2-dimethyl-4-(4-(quinolin-2-ylmethoxy)phenyl)furan-3(2H)-one] |
| ≤ 50 | CC1(C)OC(c2ccc(-n3cnnn3)cc2)=C(c2ccc(OCc3ccc4ccccc4n3)cc2)C1=O [Example 170, 5-(4-(1H-tetrazol-1-yl)phenyl)-2,2-dimethyl-4-(4-(quinolin-2-ylmethoxy)phenyl)furan-3(2H)-one] |
